“And” between values parts separate entries of the source, which are not always exact repeats. Equal entries are not always repeated. Toxic doses and inconclusive results are not listed. Cut-off read from the data, not from the text of the source: active = T/C of 150% or more; inactive = T/C below 125%.
System: L1210 leukemia ip in BDF1 mice, survival T/C
Test: NCI In Vivo Anticancer Drug Screen. Data for tumor model L1210 Leukemia (intraperitoneal) in B6D2F1 (BDF1) mice
Details: endpoint: mean survival time, higher = longer survival
How it was run: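 Each compound was tested against a transplantable tumor grown in mice. The endpoint was survival, with treated animals benchmarked against vehicle controls as a simple ratio.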

[1] = dose: 0.78 mg/kg/injection, schedule: Q01DX009 (ip), vehicle: saline
[2] = dose: 1.56 mg/kg/injection, schedule: Q01DX009 (ip), vehicle: saline
[3] = dose: 3.12 mg/kg/injection, schedule: Q01DX009 (ip), vehicle: saline
[4] = dose: 100.0 mg/kg/injection, schedule: Q01DX009 (ip), vehicle: Klucel (hydroxypropylcellulose) (HPC)
[5] = dose: 100.0 mg/kg/injection, schedule: Q04DX003 (ip), vehicle: Klucel (hydroxypropylcellulose) (HPC)
[6] = dose: 200.0 mg/kg/injection, schedule: Q01DX009 (ip), vehicle: Klucel (hydroxypropylcellulose) (HPC)
[7] = dose: 200.0 mg/kg/injection, schedule: Q04DX003 (ip), vehicle: Klucel (hydroxypropylcellulose) (HPC)
[8] = dose: 400.0 mg/kg/injection, schedule: Q01DX009 (ip), vehicle: Klucel (hydroxypropylcellulose) (HPC)
[9] = dose: 400.0 mg/kg/injection, schedule: Q04DX003 (ip), vehicle: Klucel (hydroxypropylcellulose) (HPC)
[10] = dose: 100.0 mg/kg/injection, schedule: Q01DX009 (ip), vehicle: saline with Tween-80
[11] = dose: 200.0 mg/kg/injection, schedule: Q01DX009 (ip), vehicle: saline with Tween-80
[12] = dose: 400.0 mg/kg/injection, schedule: Q01DX009 (ip), vehicle: saline with Tween-80
[13] = dose: 25.0 mg/kg/injection, schedule: Q01DX009 (ip), vehicle: saline

Measured: T/C

CC1(C)C2CCC13CC(=O)OC3C2 (stereo unspecified)
inactive: [1] 105 % of control | dose: 0.78 mg/kg/injection, schedule: Q04DX003 (ip), vehicle: acetone 101 % of control | [2] 100 % of control | dose: 1.56 mg/kg/injection, schedule: Q04DX003 (ip), vehicle: acetone 92 % of control | [3] 102 % of control | dose: 3.12 mg/kg/injection, schedule: Q04DX003 (ip), vehicle: acetone 98 % of control | dose: 4.6 mg/kg/injection, schedule: Q01DX009 (ip), vehicle: saline 89 % of control | dose: 7.0 mg/kg/injection, schedule: Q01DX009 (ip), vehicle: saline 91 % of control | dose: 10.5 mg/kg/injection, schedule: Q01DX009 (ip), vehicle: saline 104 % of control | dose: 15.0 mg/kg/injection, schedule: Q01DX009 (ip), vehicle: acetone 92 % of control

Nc1ncc([N+](=O)[O-])cn1
inactive: [4] 107 % of control | [5] 103 % of control | [6] 91 % of control | [7] 97 % of control | [8] 100 % of control | [9] 94 % of control

Nc1ncc(Br)c2ccccc12
inactive: dose: 100.0 mg/kg/injection, schedule: Q04DX003 (ip), vehicle: saline with Tween-80 96 % of control | dose: 200.0 mg/kg/injection, schedule: Q04DX003 (ip), vehicle: saline with Tween-80 103 % of control

CC(C)(C)/[N+]([O-])=[N+](\[O-])C(C)(C)C (tested in a mixture with another compound)
inactive: [10] 98 % of control | [5] 100 % of control | [11] 105 % of control | [7] 96 % of control | [12] 90 % of control

O=[N+]([O-])c1cc(Cl)cc(Br)c1O
inactive: dose: 12.5 mg/kg/injection, schedule: Q04DX003 (ip), vehicle: Klucel (hydroxypropylcellulose) (HPC) 100 % of control | dose: 25.0 mg/kg/injection, schedule: Q04DX003 (ip), vehicle: Klucel (hydroxypropylcellulose) (HPC) 102 % of control | dose: 50.0 mg/kg/injection, schedule: Q04DX003 (ip), vehicle: Klucel (hydroxypropylcellulose) (HPC) 105 % of control | [5] 103 % of control

CCCCCCCCCCCC[N+]1(CCCCCCCCCCCC)CCCC(C)C1 (stereo unspecified)
inactive: dose: 3.0 mg/kg/injection, schedule: Q04DX002 (ip), vehicle: Klucel (hydroxypropylcellulose) (HPC) 109 % of control | dose: 6.0 mg/kg/injection, schedule: Q04DX002 (ip), vehicle: Klucel (hydroxypropylcellulose) (HPC) 87 % of control

OCc1ccc(Cl)cc1
inactive: [10] 102 % of control | [11] 98 % of control | [12] 96 % of control

CCC(=O)NC1(C(=O)O)CCCc2ccccc21 (stereo unspecified)
inactive: [5] 110 % of control | [7] 96 % of control

O=[N+]([O-])c1ccc(SNc2ccc(O)cc2)cc1[N+](=O)[O-]
inactive: [4] 101 % of control | [5] 94 % of control | [6] 100 % of control | [7] 100 % of control | [8] 105 % of control | [9] 95 % of control

Cc1ccc2c(c1)CC(C)([CH2][Hg][Cl])O2 (stereo unspecified)
inactive: dose: 3.0 mg/kg/injection, schedule: Q01DX009 (ip), vehicle: Klucel (hydroxypropylcellulose) (HPC) 91 % of control | dose: 3.0 mg/kg/injection, schedule: Q04DX003 (ip), vehicle: Klucel (hydroxypropylcellulose) (HPC) 90 % of control | dose: 6.0 mg/kg/injection, schedule: Q01DX009 (ip), vehicle: Klucel (hydroxypropylcellulose) (HPC) 91 % of control | dose: 6.0 mg/kg/injection, schedule: Q04DX003 (ip), vehicle: Klucel (hydroxypropylcellulose) (HPC) 87 % of control | dose: 12.0 mg/kg/injection, schedule: Q04DX003 (ip), vehicle: Klucel (hydroxypropylcellulose) (HPC) 92 % of control

CC1=C2CCC(C)CC23C2C(=O)OC(=O)C2C1C1C(=O)OC(=O)C13 (stereo unspecified)
inactive: [13] 100 % of control | dose: 50.0 mg/kg/injection, schedule: Q04DX003 (ip), vehicle: saline 101 % of control | dose: 100.0 mg/kg/injection, schedule: Q01DX001 (ip), vehicle: saline 93 % of control | dose: 100.0 mg/kg/injection, schedule: Q04DX003 (ip), vehicle: saline 90 % of control | dose: 200.0 mg/kg/injection, schedule: Q01DX001 (ip), vehicle: saline 108 % of control

COC1OC2COc3ccccc3OC2C(NC#N)C1OC (stereo unspecified)
inactive: dose: 25.0 mg/kg/injection, schedule: Q01DX009 (ip), vehicle: Klucel (hydroxypropylcellulose) (HPC) 102 % of control | dose: 50.0 mg/kg/injection, schedule: Q01DX009 (ip), vehicle: Klucel (hydroxypropylcellulose) (HPC) 96 % of control | [4] 93 % of control and 87 % of control

CCOP(=O)(CCl)NC12CC3CC(CC(C3)C1)C2 (stereo unspecified)
inactive: [5] 96 % of control | [7] 100 % of control

S=c1[nH]nc2ccccn12
inactive: [5] 100 % of control | [7] 94 % of control | [9] 94 % of control

CC(=O)c1ccc2c(c1)N(CCCN1CCN(CCO)CC1)c1ccccc1S2
inactive: [1] 93 % of control and 120 % of control | dose: 1.5 mg/kg/injection, schedule: Q01DX009 (ip), vehicle: saline 106 % of control | [2] 105 % of control and 113 % of control | dose: 3.12 mg/kg/injection, schedule: Q01DX009 (ip), vehicle: Klucel (hydroxypropylcellulose) (HPC) 113 % of control | [3] 102 % of control and 104 % of control and 116 % of control | dose: 6.25 mg/kg/injection, schedule: Q01DX009 (ip), vehicle: saline 103 % of control and 104 % of control | dose: 6.25 mg/kg/injection, schedule: Q04DX003 (ip), vehicle: saline 98 % of control | dose: 12.5 mg/kg/injection, schedule: Q01DX009 (ip), vehicle: Klucel (hydroxypropylcellulose) (HPC) 96 % of control | dose: 12.5 mg/kg/injection, schedule: Q04DX003 (ip), vehicle: saline 115 % of control | [13] 98 % of control

Cc1c2ccccc2cc2cccc[n+]12
inactive: dose: 4.0 mg/kg/injection, schedule: Q01DX015 (ip), vehicle: saline 97 % of control | dose: 5.0 mg/kg/injection, schedule: Q01DX001 (ip), vehicle: saline 98 % of control | dose: 8.0 mg/kg/injection, schedule: Q01DX015 (ip), vehicle: saline 97 % of control | dose: 10.0 mg/kg/injection, schedule: Q01DX001 (ip), vehicle: saline 92 % of control | dose: 16.0 mg/kg/injection, schedule: Q01DX015 (ip), vehicle: saline 110 % of control | dose: 20.0 mg/kg/injection, schedule: Q01DX001 (ip), vehicle: saline 107 % of control | dose: 20.0 mg/kg/injection, schedule: Q04DX003 (ip), vehicle: saline 111 % of control | dose: 26.0 mg/kg/injection, schedule: Q04DX003 (ip), vehicle: saline 111 % of control and 118 % of control | dose: 32.0 mg/kg/injection, schedule: Q01DX015 (ip), vehicle: saline 95 % of control | dose: 40.0 mg/kg/injection, schedule: Q01DX001 (ip), vehicle: saline 112 % of control | dose: 40.0 mg/kg/injection, schedule: Q04DX003 (ip), vehicle: saline 116 % of control and 117 % of control | dose: 60.0 mg/kg/injection, schedule: Q04DX003 (ip), vehicle: saline 122 % of control

Cc1cccc(Cl)c1NC(=O)Nc1ccc(S(N)(=O)=O)cc1
inactive: [4] 94 % of control | [6] 102 % of control | [8] 92 % of control

COc1cc2c(c(OC)c1OC)c(=O)c1ccccc1n2C
inactive: dose: 50.0 mg/kg/injection, schedule: Q01DX Z (ip), vehicle: carboxymethylcellulose (CMC) 97 % of control | dose: 100.0 mg/kg/injection, schedule: Q01DX Z (ip), vehicle: carboxymethylcellulose (CMC) 103 % of control | dose: 200.0 mg/kg/injection, schedule: Q01DX Z (ip), vehicle: carboxymethylcellulose (CMC) 101 % of control

Reference: PubChem BioAssay AID248 (DTP/NCI, 2004)
